The source made the active and inactive calls. The rule behind the calls is not given here.
Target: Acetylcholinesterase (Homo sapiens, UniProt P22303)
Assay: Inhibition of AChE (unknown origin) using acetylthiocholine iodide as substrate after 5 mins by spectrophotometric analysis

Chain of Acetylcholinesterase (P22303 whole entry): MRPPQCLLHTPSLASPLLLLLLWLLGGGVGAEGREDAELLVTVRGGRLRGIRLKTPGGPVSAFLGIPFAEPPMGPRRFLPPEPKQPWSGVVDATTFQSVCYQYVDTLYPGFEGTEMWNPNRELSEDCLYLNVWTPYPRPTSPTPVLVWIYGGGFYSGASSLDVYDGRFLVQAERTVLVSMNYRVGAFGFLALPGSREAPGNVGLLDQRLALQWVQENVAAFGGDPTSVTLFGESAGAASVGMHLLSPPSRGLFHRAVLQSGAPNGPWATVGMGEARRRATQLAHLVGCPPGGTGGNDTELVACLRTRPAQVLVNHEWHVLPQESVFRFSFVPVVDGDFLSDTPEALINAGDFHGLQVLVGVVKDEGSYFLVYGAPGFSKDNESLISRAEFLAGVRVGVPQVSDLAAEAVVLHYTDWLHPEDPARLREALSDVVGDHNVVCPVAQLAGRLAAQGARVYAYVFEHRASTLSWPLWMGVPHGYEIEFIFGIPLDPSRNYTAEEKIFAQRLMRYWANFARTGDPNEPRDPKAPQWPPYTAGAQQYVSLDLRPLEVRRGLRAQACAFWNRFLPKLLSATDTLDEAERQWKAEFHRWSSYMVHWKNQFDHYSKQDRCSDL

SMILES | inhibition | IC50 [µM]
COc1cc(O)c(C(=O)O)c(-c2c(C)cc(O)c(O)c2-c2c(O)c(O)cc(C)c2-c2cc(OC)cc(O)c2C(=O)O)c1 | inactive | –
COc1cc(O)c2c(c1)C1=CC3=Nc4cc(C)c(-c5cc(OC)cc(O)c5C(=O)O)cc4O[C@]3(O)C[C@]1(C)OC2=O | inactive | –
COc1cc(O)c(C(C)=O)c(-c2c(C)cc(O)c3oc4c(O)cc(C)c(-c5cc(OC)cc(O)c5C(=O)O)c4c23)c1 | – | 68.3
COc1cc(O)c(C(=O)O)c(-c2c(C)cc(O)c3oc4c(c23)C2(OC(=O)c3c(O)cc(OC)cc32)C(C)=CC4=O)c1 (stereo in doubt; (+)-2) | inactive | –
COc1cc(O)c2c(c1)C1=CC3=Nc4cc(C)c(-c5cc(OC)cc(O)c5C(=O)O)cc4O[C@@]3(O)C[C@@]1(C)OC2=O | inactive | –
COc1cc(O)c2c(c1)C1=C(C3=C4c5cc(OC)cc(O)c5C(=O)OC4(C)C=C(O)C3=O)C(=O)C(O)=CC1(C)OC2=O (stereo in doubt; (+)-6) | inactive | –
COc1cc(O)c(C(=O)O)c(-c2c(C)cc(O)c3oc4c(c23)C2(OC(=O)c3c(O)cc(OC)cc32)C(C)=CC4=O)c1 (stereo in doubt; (-)-2) | inactive | –
COc1cc(O)c2c(c1)C1=C(c3c(O)c(O)cc(C)c3-c3cc(OC)cc(O)c3C(=O)O)C(=O)C(O)=CC1(C)OC2=O (stereo not given) | inactive | 15.5
COc1cc(O)c2c(c1)C1=C(C3=C4c5cc(OC)cc(O)c5C(=O)OC4(C)C=C(O)C3=O)C(=O)C(O)=CC1(C)OC2=O (stereo in doubt; (-)-6) | inactive | –

Reference: ChEMBL document CHEMBL4480424, “Bialternacins A-F, Aromatic Polyketide Dimers from an Endophytic Alternaria sp” (J Nat Prod, 2019)
